In patent publication US11698366B2, “Human tissue stem cell and use thereof” (KEIO UNIVERSITY, priority 2017, dated 2023):

How the values were obtained:
[1] = system: tumor derived from LGR5-iCT organoid; assay: Tumor size of LGR5-iCT organoid xenograft measured regularly; format: in vivo, NOG mice
Procedure: The LGR5-iCT organoid was xenografted under the renal capsule of NOG mice (7-12 weeks old, male) by the same method as Experimental Example 2. Subsequently, after a tumor was formed, the AP20187 was administered to mice daily for 5 days. In addition, control mice to which only a solvent was administered daily for 5 days. Thereafter, a tumor size of each mouse was measured regularly.
In addition, FIG. 6 is a graph showing a result obtained by measuring the size of a tumor of each of a mouse (Dimerizer) to which the AP20187 is administered and the control mouse (Vehicle), regularly. As a result, it was confirmed that the tumor size was reduced by the administration of the AP20187.
In addition, the inventors examined the expression of the LGR5 gene in the tumor tissue after the administration of the AP20187. […] In addition, it was also clear that a re-increase of the tumor size corresponds to re-expression of the LGR5 gene.

[2] = system: LGR5-positive cancer stem cell; assay: Tumor tissue sections of LGR5-iCT organoid xenograft (tdTomato fluorescence, KRT20 immunostaining); format: in vivo, NOG mice; settings: tumor section on the 5th day from start of administration, daily for 5 days
Excerpt: First, an IRES-iCaspase9-T2A-tdTomato construct was introduced into the LGR5 gene locus of the cultured organoid derived from colon cancer by the same method as in Experimental Example 1. Hereinafter, these organoids may be referred to as “LGR5-iCT organoids” in some cases.
iCaspase 9 is a drug-induced suicide gene. The iCaspase 9 has no activity in a monomer, but forms a dimer in the presence of AP20187 (dimerizer, APExBIO) to induce apoptosis. Also, TdTomato is a kind of red fluorescent protein (RFP).
FIG. 4 is a diagram illustrating a structure of the completed LGR5 gene locus and behavior of the drug-induced suicide gene. […] Therefore, it is possible to confirm the presence of the LGR5-positive cell by observing the fluorescence of the tdTomato. […] As a result, the fluorescence of the tdTomato becomes not observed.
The LGR5-iCT organoid was xenografted under the renal capsule of NOG mice (7-12 weeks old, male) by the same method as Experimental Example 2. […] Thereafter, a tumor size of each mouse was measured regularly.
FIGS. 5 (a) and 5(b) show fluorescence micrographs of a result obtained by extracting a tumor of each mouse on the 5th day from the start of administration of the AP20187 to prepare a tissue section and detecting the fluorescence of the tdTomato and KRT20 as a differentiation marker by immunostaining. […]

cancer cell = assay: LGR5-iCT/CMV-GFP organoid screening, GFP fluorescence; format: cell-based, human; settings: final concentration shown in FIG. 8; DMSO control
Excerpt: A CMV-GFP construct was further introduced into the LGR5-iCT organoid prepared in Experimental Example 4. In the CMV-GFP construct, a GFP gene was linked downstream of the CMV promoter, which is the forced expression promoter. Therefore, regardless of whether or not the LGR5 gene was expressed, the GFP gene was expressed in all cells and emitted fluorescence of the GFP protein. Hereinafter, these organoids may be referred to as “LGR5-iCT/CMV-GFP organoids” in some cases.
In the LGR5-iCT/CMV-GFP organoid, survival activity of the cancer cell can be observed by fluorescence of GFP, and survival activity of the cancer stem cell can be observed by fluorescence of tdTomato.
Using the LGR5-iCT/CMV-GFP organoid, high-throughput screening of existing anticancer drugs used for the treatment of colon cancer was performed, and the effects on the cancer cells and the cancer stem cells were examined.
FIG. 8 is a micrograph of an organoid showing a typical result. In FIG. 8, “BRIGHT FIELD” indicates a bright field observation image. “CMV-GFP” indicates a fluorescence micrograph obtained by observing GFP fluorescence”. “LGR5-tdTomato” indicates a fluorescence micrograph obtained by observing tdTomato fluorescence. “Merge” indicates the result obtained by synthesizing the bright-field observation image, the GFP fluorescence micrograph, and the micrograph of tdTomato fluorescence. […]

cancer stem cell = assay: LGR5-iCT/CMV-GFP organoid screening, tdTomato fluorescence; format: cell-based, human; settings: final concentration shown in FIG. 8; DMSO control
Excerpt: In addition, Irinotecan, Cetuximab, and Oxaliplatin are existing anticancer drugs. In addition, “DMSO” refers to dimethyl sulfoxide added to the medium instead of the anticancer drug as a control.

Compound	tumor size ([1]; after administration daily for 5 days)	tumor growth ([1]; continuous cancer stem cell treatment, tumor not completely cured)	expression of the LGR5 gene in the tumor tissue after administration ([1]; expression once disappeared, corresponds to re-increase of tumor size)	tumor size, eventually ([1]; later after the end of the 5-day administration)	effect on LGR5-negative cell [2]	effect on LGR5-positive cancer stem cell (apoptosis) [2]	effect against the cancer cell (GFP fluorescence) (cancer cell)	effect against the cancer stem cell (tdTomato fluorescence) (cancer stem cell)
CC[C@H](C(=O)N1CCCC[C@H]1C(=O)O[C@H](CCc1ccc(OC)c(OC)c1)c1cccc(OCC(=O)NCC(CNC(=O)COc2cccc([C@@H](CCc3ccc(OC)c(OC)c3)OC(=O)[C@@H]3CCCCN3C(=O)[C@@H](CC)c3cc(OC)c(OC)c(OC)c3)c2)CN(C)C)c1)c1cc(OC)c(OC)c(OC)c1 [AP20187]	reduced	could suppress tumor growth	recognized again	increased again	remained intact	completely died	–	–
O=C1[O][Pt]2([NH][C@@H]3CCCC[C@H]3[NH]2)[O]C1=O [oxaliplatin]	–	–	–	–	–	–	kills	kills
CCc1c2c(nc3ccc(OC(=O)N4CCC(N5CCCCC5)CC4)cc13)-c1cc3c(c(=O)n1C2)COC(=O)[C@]3(O)CC [irinotecan]	–	–	–	–	–	–	showed a growth suppression effect	not effective
